In publication PMC7999199, “Novel Cationic Meso-Arylporphyrins and Their Antiviral Activity against HSV-1” (Pharmaceuticals, 2021):

Assay: Micelle size of Pluronic F-127 formulations by dynamic light scattering
Type: physicochemical
Conditions: Pluronic F-127 micelles, concentration 3·10^−6 M
Protocol: The size of obtained micelles for the compounds 3a,b was determined by the dynamic light scattering (DLS) method. The micelle size for compounds 3a,b was 17.53 nm and 14.69 nm, respectively, at concentrations of 3·10^−6 M (Figure 4a,b). It has previously been reported that a similar micelle size increased the efficiency and circulation of the encapsulated drug in the blood due to the small scale, which avoided the capture of nanoparticles by the reticular endothelial system.
NMR (^1H and ^13C) spectra of the test solutions in CDCl3 or (CD3OD) were recorded on a Bruker MSL-300 pulse Fourier transform spectrometer (Bruker, Billerica, MA, USA) at frequencies of 300.3 and 75.49 MHz, respectively, with internal deuterium stabilization. Tetramethylsilane was used as an external standard. IR spectra (4000–500 cm^–1) were recorded on Infralyum FT 02 Fourier spectrometer (Lumex Instruments Research and Production Company, Moscow, Russia) with a resolution of 1 cm^−1. Samples were prepared as KBr tablets. Dynamic light scattering was measured using Malvern Zetasizer Nano ZS (Malvern, United Kingdom). […] Mass spectra were recorded using an 1100 LCMSD liquid chromatograph (Agilent Technologies, Santa Clara, CA, USA) equipped with a mass spectrometric chemical ionization detector at atmospheric pressure (HIAD, APCI, ESI) and with a UV spectrophotometric detector (DAD). […]

In the case of `O=C(CC[n+]1ccccc1)Oc1ccc(-c2c3nc(c(-c4ccc(OC(=O)CC[n+]5ccccc5)cc4)c4ccc([nH]4)c(-c4ccc(OC(=O)CC[n+]5ccccc5)cc4)c4nc(c(-c5ccc(OC(=O)CC[n+]6ccccc6)cc5)c5ccc2[nH]5)C=C4)C=C3)cc1` [3a], the “micelle size (DLS)” value is reported as 17.53 nm.
